Reference: patent US5221625A, “Cyclcic FR-900520 microbial biotransformation agent” (Merck & Co., Inc., priority 1992, dated 1993)

Assays:
[1] = system: FK-506 immunosuppressive activity; assay: antagonist activity versus the FK-506 immunosuppressive activity by the T-cell proliferation assay; assay type: cell-based; conditions: qualitative
[2] = system: mouse T lymphocytes (splenic T-cells); assay: T-cell proliferation assay (ionomycin plus PMA induced, tritiated thymidine uptake); assay type: cell-based, mouse (C57Bl/6)
Procedure: The principle of this assay is to measure the proliferation of mouse T lumphocytes stimulated with the combination of ionomycin plus PMA.
Cells were pelleted by centrifugation at 1500 rpm for 8 minutes. Contaminating red cells were removed by treating the pellet with ammonium chloride lysing buffer (GIBCO) for 2 minutes at 4° C. Cold medium was added and cells were again centrifuged at 1500 rpm for 8 minutes. T lumphocytes were then isolated by separation of the cell suspension on nylon wool columns as follows: Nylon wool columns were prepared by packing approximately 4 grams of washed and dried nylon wool into 20 ml plastic syringes. The columns were sterilized by autoclaving at 250° F. for 30 minutes. Nylon wool columns were wetted with warm (37° C.) culture medium and rinsed with the same medium. Washed spleen cells resuspended in warm medium were slowly applied to the nylon wool. The columns were then incubated in an upright position at 37° C. for 1 hours. […]
The cell suspension was immediately distributed into 96 well flat-bottom microculture plates (Costar) at 200 μl/well. […] Radioactivity of filter discs corresponding to individual wells was measured by standard liquid scintillation counting method (Betacounter). Mean counts per minute of replicate wells were calculated and the results expressed as percent inhibition of tritiated thymidine uptake (proliferation) as follows: [formula]

[3] = reputed; vs cyclosporin; cited from earlier work

Row | SMILES | antagonist activity versus FK-506 immunosuppressive activity [1] | reversal of inhibition of T-cell proliferation by IL2 ([2]; 50 units/ml recombinant IL2 added at initiation of culture) | inhibition of T-cell activation ([2]; ionomycin + PMA, qualitative) | effectiveness relative to cyclosporin [3] [times]
1 | CC[C@@H]1C=C2COC1(O)C[C@H](O)[C@@H](C)[C@@H](/C(C)=C/[C@@H]1CC[C@@H](O)[C@H](OC)C1)OC(=O)[C@@H]1CCCCN1C(=O)C(=O)[C@]1(O)O[C@H]([C@@H](OC)C[C@@H](C)C2)[C@@H](OC)C[C@H]1C [Compound I] | antagonist pharmacological activity | reversed | positive inhibition of T-cell activation | 
2 | C=CC[C@@H]1/C=C(\C)C[C@H](C)C[C@H](OC)[C@H]2O[C@@](O)(C(=O)C(=O)N3CCCC[C@H]3C(=O)O[C@H](/C(C)=C/[C@@H]3CC[C@@H](O)[C@H](OC)C3)[C@H](C)[C@@H](O)CC1=O)[C@H](C)C[C@@H]2OC [FR900506] |  |  |  | 100
